Among the data in PubChem BioAssay AID687031 (Broad Institute, 2013) are AC30 values, retold here.

This test deals with BHK-21 DENV2 CPE protection, ATP luminescence, 5 d. Briefly: antiviral rescue of DENV2-infected BHK-21 cells – cell-based, ATP luminescence, cherry-pick, dose response (AID 687031).
As to `c1ccc(C2CC2)c(OCC2=NCCN2)c1`, the AC30 is 9.54 µM. As to `O=C(O)C1C2C=CC(C2)C1C(=O)NCc1ccccc1` (centres undefined), the AC30 is 15.5 µM. On to `COc1cccc(-c2ccc(C3[C@@H]4CN(S(=O)(=O)c5cn(C)cn5)C[C@H]3N4)cc2)c1` (some centres undefined), for which the AC30 was 7.87 µM. The result for `Cc1cc(F)cc(-c2cc(C(=O)NCC3CCCCC3)[nH]n2)c1` reads 10 µM; that for `C[C@H](NC(=O)CCCOc1ccc(Cl)cc1Cl)c1nnc2ccccn12`, 16.2 µM. The result for `Nc1ncccc1C(=O)OCC(=O)N1CCN(S(=O)(=O)c2ccc(Cl)cc2)CC1` reads 19 µM; that for `O=S(=O)(c1ccc2c(c1)OCCO2)N1CCCN(S(=O)(=O)c2c(F)cccc2F)CC1`, 17.5 µM. To `C[C@H](NC(=O)[C@H]1N[C@H]2c3ccc(-c4cccnc4)c(=O)n3C[C@H]2[C@@H]1CO)c1ccccc1` belongs 12.5 µM; to `OC(CSc1nnnn1-c1ccccc1)Cn1c2ccccc2c2ccccc21` (centres undefined), 18.8 µM. Take `CCOc1ccc2[nH]cc(S(=O)(=O)c3ccc(C)cc3)c(=O)c2c1`: the AC30 is 13 µM. The result for `COC(=O)[C@H]1CN(C(=O)c2ccccc2)C(=O)N1` reads 5.13 µM. Consider `O=C1[C@@H](Oc2ccccc2)[C@@H](c2ccncc2)N1c1ccccc1`, for which the AC30 is 14.2 µM. To `CS(=O)(=O)N1C[C@@H]2N[C@H](C1)[C@@H]2c1ccc(-c2ccccc2)cc1` belongs 5.51 µM; to `CC1CCN(C(=O)COC(=O)CNC(=O)c2ccccc2F)CC1`, 19.4 µM.

With `CC(=O)N1CCN(C(=O)COC(=O)COc2c(C)cc(C)cc2C)CC1`, the AC30 is 11.7 µM.

With `Cc1cc(F)ccc1C(O)c1ncc(-c2ccccc2C(F)(F)F)[nH]1` (centres undefined), the AC30 was 18.4 µM. To `CSc1ccccc1OCc1cc(C(=O)N2CCc3[nH]cnc3C2c2ccccn2)no1` (centres undefined) belongs 9.97 µM; to `CCNS(=O)(=O)c1ccc(Br)c(C(=O)OC(C)C(=O)NCC2CCCCC2)c1` (centres undefined), 2.25 µM; to `O=C(c1ccccc1)N1CC[C@@H]2[C@H](CO)Nc3ccc(C#Cc4cccc(F)c4)cc3[C@@H]21`, 3.21 µM.

As to `Cn1cnc(S(=O)(=O)N[C@@H]2C=C[C@H](CC(=O)N3CCN(c4ccccc4)CC3)O[C@@H]2CO)c1`, the AC30 is 17 µM. With `O=C(C1CCOCC1)N1C[C@H]2[C@@H](c3ccccc31)[C@@H](CO)N2C(=O)c1ccccc1`, the AC30 is 18.8 µM. For the compound `COCCNC(=O)CCC1CCN(C/C=C/c2ccccc2OC)CC1`, the AC30 was 19.3 µM.

On to `CCc1c(C2(O)CCCCC2)[nH]c2c(C(=O)OC)cc(Cl)cc12`, for which the AC30 is 12.3 µM. To `COc1ccc(C(N)c2csc(Nc3cc(Oc4ccccc4)ncn3)n2)cc1` (centres undefined) belongs 17.4 µM. Turning to `C[C@@H]1CCCCO[C@H](CN(C)S(=O)(=O)c2ccccc2)[C@@H](C)CN([C@@H](C)CO)C(=O)c2cc(NC(=O)c3ccncc3)ccc2O1`, the AC30 was 17.6 µM. The result for `Cc1c(C(=O)OC(C)C)sc(N)c1C(=O)OC(C)C` reads 18.6 µM. In the case of `Cc1cc(OC(C)C(=O)NC2CC(C)(C)NC(C)(C)C2)c2c(C)c(C)c(=O)oc2c1` (centres undefined), the AC30 was 2.89 µM. For the compound `COc1ccc(CN2CCNC(=O)C2CC(=O)NCC2CCOCC2)c(C)c1C` (centres undefined), the AC30 was 15.7 µM. The result for `COC(=O)[C@@H]1[C@@H](CO)[C@@H]2Cn3c(ccc(C4=CCCC4)c3=O)[C@H]1N2Cc1ccccn1` reads 17.2 µM; that for `CCC[C@@H]1CCCO[C@@](C(=O)NCc2ccccn2)(C(F)(F)F)C1`, 10 µM; that for `CC1CCN(CCOc2ccc(OCc3ccccc3)cc2)CC1`, 11.3 µM.

With `CC(C)[C@H](NC(=O)N1C[C@H]2C[C@@H](C1)c1cccc(=O)n1C2)C(=O)Nc1ccccc1F`, the AC30 was 16.2 µM.

Regarding `C[C@H](CO)N1C[C@H](C)[C@H](CN(C)C(=O)Nc2ccc(-c3ccccc3)cc2)OCc2ccccc2-c2c(n(C)c3ccccc23)C1=O`, the AC30 is 17.7 µM. The result for `Cc1ccc(C(=O)NCC(=O)NCC(c2cccs2)N2CCOCC2)cc1C` (centres undefined) reads 14.8 µM; that for `Cc1cc(C)cc(NC(=O)Cn2nnc(C(=O)NCc3cccs3)c2N)c1`, 13.3 µM. As to `CC1CCCN(C(=O)c2ccc(S(=O)(=O)Nc3ccccc3Cl)cc2)C1` (centres undefined), the AC30 is 13.5 µM. `FC(F)(F)c1cccnc1Oc1ccc(C2=NCCS2)cc1`: the AC30 was 8.01 µM.

As to `Oc1cccc2nc3ccccc3nc12`, the AC30 is 14.4 µM. To `CCN(CC)CC(=O)N1CCCC(N2CCN(c3cccc(C(F)(F)F)c3)CC2)C1` (centres undefined) belongs 19.1 µM; to `Cc1noc(C)c1NC(=O)Nc1ccc2c(c1)C(=O)N([C@@H](C)CO)C[C@@H](C)[C@@H](CN(C)S(C)(=O)=O)OCCCC[C@@H](C)O2`, 18.6 µM; to `CN(C)CC(=O)Nc1ccc2c(c1)[C@@H]1C[C@@H](CC(=O)NC3CCCCC3)O[C@H](CO)[C@@H]1O2`, 8.06 µM. On to `CCOC(=O)N1CCN(C(C(=O)NC2CCCC2)C(C)C)CC1` (centres undefined), for which the AC30 is 9.37 µM.

With `Cc1cccc([C@@H]2[C@@H]3C(=O)N(C)C(=O)[C@@H]3[C@@H]3C(=O)Nc4ccccc4C(=O)N23)c1`, the AC30 is 18.7 µM. For `CC1CCCC(NC(=O)COC(=O)c2ccccc2Sc2ccccc2C#N)C1C` (centres undefined), the AC30 is 12.7 µM. To `NC(=O)c1ccsc1NC(=O)COC(=O)[C@@H]1CCCN1C(=O)c1cccs1` belongs 11 µM. The result for `Cc1ccccc1S(=O)(=O)N1CC[C@@H]2[C@H](CO)Nc3ccc(-c4cccc(C#N)c4)cc3[C@@H]21` reads 15.9 µM; that for `CCN(CC(=O)NCC(=O)Nc1cccc(C)c1C)Cc1ccccc1`, 19.3 µM; that for `CCCNC(=O)C[C@H]1CC[C@@H]2[C@H](COC[C@@H](O)CN2C(=O)c2ccccn2)O1`, 17.3 µM. To `COC(=O)N1CCCCC1c1cc(C(=O)Nc2ccc(OC)cc2C)no1` (centres undefined) belongs 13 µM.
